Test results as given in PubChem BioAssay (NCI).
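Compound exposure: 48 hours, 5 concentrations, 96-well plates. GI50: concentration for 50% inhibition of growth. TGI marks complete inhibition of growth.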

Columns and labels:
Test in all cases: NCI anticancer screen, dose series, 48 h
[1] = test system: 786-0 renal
[2] = test system: IGROV1 ovarian
[3] = test system: SN12C renal
[4] = test system: M14 melanoma
[5] = test system: MDA-MB-435
[6] = test system: UACC-257 melanoma
[7] = test system: OVCAR-5 ovarian
[8] = test system: SF-539 CNS
[9] = test system: OVCAR-8 ovarian
[10] = test system: SF-295 CNS
[11] = test system: A549 NSCLC
[12] = test system: HOP-92 NSCLC
[13] = test system: HS 578T breast
[14] = test system: SK-OV-3 ovarian
[15] = test system: HCT-116 colon
[16] = test system: SNB-19 CNS
[17] = test system: HL-60(TB) leukemia
[18] = test system: SR leukemia
[19] = test system: TK-10 renal
[20] = test system: KM12 colon
[21] = test system: BT-549 breast
[22] = test system: U251 CNS
[23] = test system: HT29 colon
[24] = test system: DU-145 prostate
[25] = test system: NCI-H460 lung
[26] = test system: HOP-62 NSCLC
[27] = test system: NCI-H226 lung
[28] = test system: MDA-MB-231 breast
[29] = test system: UO-31 renal
[30] = test system: HCC-2998 colon
[31] = test system: OVCAR-3 ovarian
[32] = test system: OVCAR-4 ovarian
[33] = test system: MOLT-4 leukemia
[34] = test system: SF-268 CNS
[35] = test system: RPMI-8226 leukemia
[36] = test system: RXF 393 renal
[37] = test system: MALME-3M melanoma
[38] = test system: HCT-15 colon
[39] = test system: NCI-H522 lung
[40] = test system: CAKI-1 renal
[41] = test system: COLO 205 colon
[42] = test system: LOX IMVI melanoma
[43] = test system: NCI/ADR-RES ovarian
[44] = test system: A498 renal
[45] = test system: SK-MEL-2 melanoma
[46] = test system: EKVX NSCLC
[47] = test system: ACHN renal
[48] = test system: SK-MEL-5 melanoma
[49] = test system: NCI-H23 lung
[50] = test system: CCRF-CEM leukemia
[51] = test system: T-47D breast
[52] = test system: SW-620 colon

How did the GI50 [1] turn out when COc1cc2c3c(n(CCCN(C)C)c(=O)c2cc1OC)-c1cc2c(cc1C3=O)OCO2 was run?
The GI50 was 79.9 nM.

What about the TGI [1] of the same compound?
The TGI was 583 nM.

And the GI50 [2]?
The GI50 was 1040 nM.

And the TGI [2]?
The TGI was 2380 nM.

And the GI50 [3]?
Its GI50 is 935 nM.

And the TGI [3]?
Its TGI is 2750 nM.

And the GI50 [4]?
The GI50 was 422 nM.

What about the TGI [4] of the same compound?
Its TGI is 1930 nM.

And the GI50 [5]?
Its GI50 is 650 nM.

And the TGI [5]?
Its TGI is 2130 nM.

What about the GI50 [6] of the same compound?
Its GI50 is 1180 nM.

And the TGI [6]?
The TGI was 2840 nM.

What about the GI50 [7] of the same compound?
Its GI50 is 1200 nM.

And the TGI [7]?
Its TGI is 2440 nM.

What about the GI50 [8] of the same compound?
The GI50 was 162 nM.

And the TGI [8]?
Its TGI is 1310 nM.

What about the GI50 [9] of the same compound?
The GI50 was 432 nM.

And the TGI [9]?
Its TGI is 3040 nM.

What about the GI50 [10] of the same compound?
The GI50 was 38.7 nM.

And the TGI [10]?
The TGI was 1650 nM.

And the GI50 [11]?
The GI50 was 515 nM.

And the TGI [11]?
The TGI was 2290 nM.

And the GI50 [12]?
Its GI50 is 1840 nM.

And the TGI [12]?
The TGI was 10600 nM.

And the GI50 [13]?
Its GI50 is 2300 nM.

And the TGI [13]?
Its TGI is 5930 nM.

And the GI50 [14]?
The GI50 was 1290 nM.

And the TGI [14]?
The TGI was 4330 nM.

And the GI50 [15]?
Its GI50 is 220 nM.

And the TGI [15]?
Its TGI is 1870 nM.

What about the GI50 [16] of the same compound?
Its GI50 is 554 nM.

What about the TGI [16] of the same compound?
The TGI was 6120 nM.

And the GI50 [17]?
Its GI50 is 1010 nM.

What about the TGI [17] of the same compound?
Its TGI is 3330 nM.

What about the GI50 [18] of the same compound?
Its GI50 is less than 10 nM.

What about the TGI [18] of the same compound?
Its TGI is 112 nM.

What about the GI50 [19] of the same compound?
Its GI50 is 1480 nM.

What about the TGI [19] of the same compound?
Its TGI is 3260 nM.

What about the GI50 [20] of the same compound?
The GI50 was 678 nM.

What about the TGI [20] of the same compound?
The TGI was 2680 nM.

What about the GI50 [21] of the same compound?
The GI50 was 1400 nM.

And the TGI [21]?
The TGI was 3440 nM.

What about the GI50 [22] of the same compound?
Its GI50 is 127 nM.

And the TGI [22]?
The TGI was 4000 nM.

And the GI50 [23]?
The GI50 was 70.2 nM.

And the TGI [23]?
Its TGI is 1780 nM.

What about the GI50 [24] of the same compound?
Its GI50 is 144 nM.

And the TGI [24]?
The TGI was 1690 nM.

And the GI50 [25]?
The GI50 was 281 nM.

What about the TGI [25] of the same compound?
The TGI was 3370 nM.

What about the GI50 [26] of the same compound?
The GI50 was 18.2 nM.

And the TGI [26]?
The TGI was 421 nM.

And the GI50 [27]?
Its GI50 is 1400 nM.

And the TGI [27]?
Its TGI is 5880 nM.

And the GI50 [28]?
Its GI50 is 972 nM.

And the TGI [28]?
Its TGI is 2760 nM.

And the GI50 [29]?
The GI50 was 926 nM.

And the TGI [29]?
The TGI was 2260 nM.

What about the GI50 [30] of the same compound?
The GI50 was less than 35.7 nM.

And the GI50 [31]?
The GI50 was 1330 nM.

And the TGI [31]?
Its TGI is 2910 nM.

And the GI50 [32]?
The GI50 was 467 nM.

What about the TGI [32] of the same compound?
The TGI was 2880 nM.

What about the GI50 [33] of the same compound?
Its GI50 is less than 10 nM.

What about the TGI [33] of the same compound?
Its TGI is 3400 nM.

And the GI50 [34]?
The GI50 was 1110 nM.

What about the TGI [34] of the same compound?
Its TGI is 5590 nM.

And the GI50 [35]?
The GI50 was 182 nM.

And the TGI [35]?
Its TGI is 1190 nM.

What about the GI50 [36] of the same compound?
The GI50 was 2480 nM.

And the TGI [36]?
Its TGI is greater than 100000 nM.

What about the GI50 [37] of the same compound?
Its GI50 is 163 nM.

And the TGI [37]?
Its TGI is 1980 nM.

And the GI50 [38]?
Its GI50 is 331 nM.

What about the GI50 [39] of the same compound?
Its GI50 is 805 nM.

And the TGI [39]?
Its TGI is 4740 nM.

And the GI50 [40]?
The GI50 was 368 nM.

What about the TGI [40] of the same compound?
The TGI was 1770 nM.

What about the GI50 [41] of the same compound?
Its GI50 is 944 nM.

And the TGI [41]?
Its TGI is 11700 nM.

What about the GI50 [42] of the same compound?
The GI50 was 66.2 nM.

What about the TGI [42] of the same compound?
Its TGI is 1580 nM.

And the GI50 [43]?
The GI50 was 67.8 nM.

And the TGI [43]?
The TGI was 564 nM.

What about the GI50 [44] of the same compound?
Its GI50 is 9920 nM.

And the TGI [44]?
The TGI was 33400 nM.

What about the GI50 [45] of the same compound?
Its GI50 is 3450 nM.

And the TGI [45]?
Its TGI is 13100 nM.

What about the GI50 [46] of the same compound?
Its GI50 is 1460 nM.

What about the TGI [46] of the same compound?
The TGI was 3390 nM.

What about the GI50 [47] of the same compound?
Its GI50 is 146 nM.

What about the TGI [47] of the same compound?
The TGI was 1140 nM.

What about the GI50 [48] of the same compound?
The GI50 was 436 nM.

What about the TGI [48] of the same compound?
Its TGI is 2090 nM.

And the GI50 [49]?
Its GI50 is 165 nM.

What about the TGI [49] of the same compound?
The TGI was 1590 nM.

What about the GI50 [50] of the same compound?
Its GI50 is less than 10 nM.

What about the TGI [50] of the same compound?
Its TGI is 403 nM.

And the GI50 [51]?
The GI50 was 496 nM.

What about the TGI [51] of the same compound?
Its TGI is 3940 nM.

What about the TGI [52] of the same compound?
The TGI was 1900 nM.
